Experimental data: patent publication US10961539B2, “Promoter system inducing expression by 3-hydroxypropionic acid and method for biological production of 3-hydroxypropionic acid using same” (NOROO IC Co., Ltd., priority 2015, dated 2021)
Where “and” joins values, the source holds several entries; their conditions need not be identical. Equal values may be shown once. Read-outs that look alike come from different tables or passages of the source.

Assays:
3hibdh = type: cell-based, microorganisms shown in Table 1
mmsadh = experiment: RT-PCR relative mRNA level of 3-HP catabolic gene
3hibdhIV = experiment: RT-PCR relative mRNA level of 3-HP catabolic gene
[1] = cells exposed to 25 mmol/L 3-HP vs no 3-HP, M9 medium, rpoD reference gene
[2] = strain with C4 LysR gene removed

SMILES: O=C(O)CCO [3-HP, 3-hydroxypropionic acid]
- Relative mRNA level 3hibdh + 3-HP (3hibdh): 7.21 and 6.43
- Relative mRNA level 3hibdh + 3-HP (3hibdh; Achromobacter denitrificans, + 3-HP): 6.40
- Relative mRNA level 3hibdh + 3-HP (3hibdh; Acidovorax avenae subsp., + 3-HP): 5.97
- Relative mRNA level 3hibdh + 3-HP (3hibdh; Acidovorax sp., + 3-HP): 6.76
- Relative mRNA level 3hibdh + 3-HP (3hibdh; Acinetobacter baumannii, + 3-HP): 6.02
- Relative mRNA level 3hibdh + 3-HP (3hibdh; Aeromonas hydrophilia, + 3-HP): 6.17
- Relative mRNA level 3hibdh + 3-HP (3hibdh; Agrobacterium sp., + 3-HP): 6.27
- Relative mRNA level 3hibdh + 3-HP (3hibdh; Alcaligenes faecalis, + 3-HP): 5.87
- Relative mRNA level 3hibdh + 3-HP (3hibdh; Alcanivorax hongdengensis, + 3-HP): 6.74
- Relative mRNA level 3hibdh + 3-HP (3hibdh; Alicychphilus denitrificans, + 3-HP): 7.01
- Relative mRNA level 3hibdh + 3-HP (3hibdh; Alteromonas marina, + 3-HP): 6.09
- Relative mRNA level 3hibdh + 3-HP (3hibdh; Amycolatopsis sp., + 3-HP): 5.96
- Relative mRNA level 3hibdh + 3-HP (3hibdh; Anaeromyxobacter dehalogenans, + 3-HP): 6.43
- Relative mRNA level 3hibdh + 3-HP (3hibdh; Azospirillum brasilensse, + 3-HP): 6.54
- Relative mRNA level 3hibdh + 3-HP (3hibdh; Azotobacter vinelandii, + 3-HP): 6.73
- Relative mRNA level 3hibdh + 3-HP (3hibdh; Beijerinckia indica, + 3-HP): 6.59
- Relative mRNA level 3hibdh + 3-HP (3hibdh; Bordetella avium, + 3-HP): 6.04
- Relative mRNA level 3hibdh + 3-HP (3hibdh; Bradyrhizobium japonicum, + 3-HP): 7.21
- Relative mRNA level 3hibdh + 3-HP (3hibdh; Burkholderia ambifaria, + 3-HP): 5.94
- Relative mRNA level 3hibdh + 3-HP (3hibdh; Castellaniella defragrans, + 3-HP): 7.43
- Relative mRNA level 3hibdh + 3-HP (3hibdh; Catenulispora acidiphilia, + 3-HP): 5.84
- Relative mRNA level 3hibdh + 3-HP (3hibdh; Caulobacter sp., + 3-HP): 5.96
- Relative mRNA level 3hibdh + 3-HP (3hibdh; Chromobacterium violaceum, + 3-HP): 7.02
- Relative mRNA level 3hibdh + 3-HP (3hibdh; Collimonas arenae, + 3-HP): 7.20
- Relative mRNA level 3hibdh + 3-HP (3hibdh; Comamonas testosteroni, + 3-HP): 5.88
- Relative mRNA level 3hibdh + 3-HP (3hibdh; Corynebacterium vitaeruminis, + 3-HP): 6.99
- Relative mRNA level 3hibdh + 3-HP (3hibdh; Cupriavidus necator, + 3-HP): 6.84
- Relative mRNA level 3hibdh + 3-HP (3hibdh; Curvibacter gracilus, + 3-HP): 5.76
- Relative mRNA level 3hibdh + 3-HP (3hibdh; Delftia acidovorans, + 3-HP): 6.34
- Relative mRNA level 3hibdh + 3-HP (3hibdh; Ferrimonas balearica, + 3-HP): 7.04
- Relative mRNA level 3hibdh + 3-HP (3hibdh; Glaciecola nitratireducens, + 3-HP): 7.11
- Relative mRNA level 3hibdh + 3-HP (3hibdh; Gordonia bronchialis, + 3-HP): 6.99
- Relative mRNA level 3hibdh + 3-HP (3hibdh; Hahella chijuensis, + 3-HP): 6.81
- Relative mRNA level 3hibdh + 3-HP (3hibdh; Halomonas elongata, + 3-HP): 5.41
- Relative mRNA level 3hibdh + 3-HP (3hibdh; Hirschia litorea, + 3-HP): 6.19
- Relative mRNA level 3hibdh + 3-HP (3hibdh; Idiomarina sp., + 3-HP): 7.21
- Relative mRNA level 3hibdh + 3-HP (3hibdh; Janthinobacterium lividum, + 3-HP): 6.98
- Relative mRNA level 3hibdh + 3-HP (3hibdh; Kitasatospora setae, + 3-HP): 6.46
- Relative mRNA level 3hibdh + 3-HP (3hibdh; Kutzneria albida, + 3-HP): 5.96
- Relative mRNA level 3hibdh + 3-HP (3hibdh; Methylobacterium sp., + 3-HP): 6.02
- Relative mRNA level 3hibdh + 3-HP (3hibdh; Methylocystis sp., + 3-HP): 6.51
- Relative mRNA level 3hibdh + 3-HP (3hibdh; Novosphingobium sp., + 3-HP): 5.98
- Relative mRNA level 3hibdh + 3-HP (3hibdh; Oceanimonas smirnovii, + 3-HP): 6.44
- Relative mRNA level 3hibdh + 3-HP (3hibdh; Paracoccus sp., + 3-HP): 6.32
- Relative mRNA level 3hibdh + 3-HP (3hibdh; Parvibaculum lavamentivorans, + 3-HP): 7.31
- Relative mRNA level 3hibdh + 3-HP (3hibdh; Phenylobacterium kunshanensis, + 3-HP): 7.43
- Relative mRNA level 3hibdh + 3-HP (3hibdh; Photobacterium gaetbuleda, + 3-HP): 7.02
- Relative mRNA level 3hibdh + 3-HP (3hibdh; Polynucleobacter necessarius asymbioticus, + 3-HP): 6.99
- Relative mRNA level 3hibdh + 3-HP (3hibdh; Pseudoalteromonas carrgeenovora, + 3-HP): 5.76
- Relative mRNA level 3hibdh + 3-HP (3hibdh; Pseudogulbenkiania sp., + 3-HP): 5.98
- Relative mRNA level 3hibdh + 3-HP (3hibdh; Pseudomonas denitrificans ATCC13867, + 3-HP): 6.20
- Relative mRNA level 3hibdh + 3-HP (3hibdh; Pseudomonas fluorescens, + 3-HP): 5.81
- Relative mRNA level 3hibdh + 3-HP (3hibdh; Pseudomonas knackmussii, + 3-HP): 6.81
- Relative mRNA level 3hibdh + 3-HP (3hibdh; Pseudomonas protegens, + 3-HP): 5.62
- Relative mRNA level 3hibdh + 3-HP (3hibdh; Pseudoxanthomonas spadix, + 3-HP): 5.99
- Relative mRNA level 3hibdh + 3-HP (3hibdh; Psychrobacter phenylpyruvicus, + 3-HP): 7.04
- Relative mRNA level 3hibdh + 3-HP (3hibdh; Rhodomicrobium vannielli, + 3-HP): 7.01
- Relative mRNA level 3hibdh + 3-HP (3hibdh; Segniliparus rotundus, + 3-HP): 5.81
- Relative mRNA level 3hibdh + 3-HP (3hibdh; Shewanella oneidensis, + 3-HP): 5.81
- Relative mRNA level 3hibdh + 3-HP (3hibdh; Simiduia agarovorans, + 3-HP): 5.76
- Relative mRNA level 3hibdh + 3-HP (3hibdh; Sinorhizobium meliloti, + 3-HP): 5.79
- Relative mRNA level 3hibdh + 3-HP (3hibdh; Sphingobium chlorophenolicum, + 3-HP): 5.99
- Relative mRNA level 3hibdh + 3-HP (3hibdh; Sphingomonas wittichii, + 3-HP): 7.02
- Relative mRNA level 3hibdh + 3-HP (3hibdh; Sphingopyxis alaskensis, + 3-HP): 7.00
- Relative mRNA level 3hibdh + 3-HP (3hibdh; Stenotrophomonas maltophilia, + 3-HP): 6.02
- Relative mRNA level 3hibdh + 3-HP (3hibdh; Streptomyces nodosus, + 3-HP): 6.72
- Relative mRNA level 3hibdh + 3-HP (3hibdh; Tatlockia micdadei, + 3-HP): 6.61
- Relative mRNA level 3hibdh + 3-HP (3hibdh; Thalassospira xiamenensis, + 3-HP): 7.02
- Relative mRNA level 3hibdh + 3-HP (3hibdh; Variovorax paradoxus, + 3-HP): 6.59
- Relative mRNA level 3hibdh + 3-HP (3hibdh; Verminephrobacter eiseniae, + 3-HP): 6.43
- Relative mRNA level 3hibdh + 3-HP (3hibdh; Vibrio furnissii, + 3-HP): 6.03
- Relative mRNA level 3hibdh + 3-HP (3hibdh; Xanthobacter autotrophicus, + 3-HP): 6.23
- Relative mRNA level 3hibdh + 3-HP (3hibdh; Xanthomonas campestri, + 3-HP): 5.81
- increase of expression of 3hibdh by 3-HP (3hibdh; in the microorganisms (Table 7), 25 mM 3-HP in nutrient medium): 14 fold
- fold increase of mmsadh mRNA expression (mmsadh; [1]): 137 fold
- mmsadh expression on addition of 3-HP (mmsadh; [2]): did not increase the expression
- fold increase of 3hibdhIV mRNA expression (3hibdhIV; [1]): 146 fold
- 3hibdhIV expression on addition of 3-HP (3hibdhIV; [2]): did not increase the expression
